Measured values from US7892581B2, “Compositions and methods for protection of harvested fruits from decay” (Gavish-Galilee Bio Applications Ltd., priority 2005, dated 2011).

Assay: Release profile of marker components into vapor phase (headspace GC)
Assay type: physicochemical
Settings: for Time to saturation of the vapor phase: release from essential oil on filter paper, sealed vial, 20° C.; for Concentration in the vapor phase: Thyme oil, within 3 hours
Method: The profile of release of essential oils was determined by analyses using Gas Chromatograph HP6890 Series GC-System (FID) coupled with HP 7694 Headspace sampler, equipped with column HP-5 Trace Analysis (5% PH Me Siloxane) of volume 30 m×0.25 mm×0.25 μm, at ambient temperature. The following model system was developed and calibrated: filter paper (Whatman No. 1) strips absorbed with appropriate volume of essential oil to achieve desired concentrations, i.e., similar to those used for in-vivo experiments, were placed in 20 ml and 100 ml vials. The vials were hermetically sealed and marked to indicate the time course of vaporization (1, 3, 14 and 24 hours). These vials were kept in the dark at a temperature of 20° C. until their gas chromatography analyses.
GC FID analysis was applied to determine the release profile into the vapor phase of marker individual components during a 24 hour period. […] For all markers tested, saturation was achieved within 3 hours.

| SMILES | Time to saturation of the vapor phase [h] | Concentration in the vapor phase [%] |
| --- | --- | --- |
| C=CCN=C=S [allyl isothiocyanate] | ~1.5 |  |
| CC(C)=CCCC(C)CC=O (stereo not shown) [citronellal] | ~3.0 |  |
| Cc1ccc(C(C)C)cc1 [p-cymene] |  | ~56 |
| Cc1ccc(C(C)C)c(O)c1 [thymol] |  | ~1.2 |
